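Cultured in 96-well plates, cells were exposed to test compound for 48 hours across five concentrations. TGI denotes the concentration required for complete inhibition of growth.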 Bounds are passed on as bounds.

This note sets out measurements from PubChem BioAssay (NCI).

What all share (test): NCI anticancer screen, dose series, 48 h
For assay [1], the system named is A498 renal.
Assay [2] has as its system HOP-92 NSCLC.
Assay [3] deals with LOX IMVI melanoma.
Assay [4] deals with MDA-MB-435.
In assay [5] the test system is MOLT-4 leukemia.
Assay [6] deals with NCI-H226 lung.
Assay [7] has as its system NCI-H522 lung.
In assay [8] the test system is OVCAR-5 ovarian.
For assay [9], the system named is PC-3 prostate.
The test system of assay [10] is RXF 393 renal.
Assay [11] relates to SF-539 CNS.
Assay [12] deals with SK-MEL-28 melanoma.
Assay [13] concerns SNB-19 CNS.
Assay [14] relates to SNB-75 CNS.
The test system of assay [15] is U251 CNS.
Assay [16] has as its system UO-31 renal.
Assay [17] concerns HL-60(TB) leukemia.

In the case of `COc1cc2nc3n(c2cc1OC)C(O)c1c(Cl)nc(SC)nc1S3` (stereo unspecified), the TGI in assay [1] was 34.9 µM; in [2], 68.3 µM; in assay [3], 5.07 µM; in assay [4], > 64.3 µM; in assay [5], > 48.9 µM; in assay [6], 28 µM. Besides, the TGI is 4.36 µM in assay [7]; > 95.1 µM in assay [8]; > 49.8 µM in [9]; 14.8 µM in assay [10]; 5.22 µM in assay [11]; 23.2 µM in assay [12]. The TGI in [13] was > 37.7 µM; in [14] it was > 68 µM; in [15], 26.3 µM; in [16], 13.2 µM.
On to `N#Cc1cc2c(cc1C#N)SCCSCCCSCCS2`, for which the TGI was > 92.1 µM in [1]; 7.05 µM in assay [2]; 22.7 µM in assay [3]; > 100 µM in assay [4]; > 100 µM in assay [5]; > 84.8 µM in assay [6]. In addition, the TGI in [7] was > 85.7 µM; in assay [8], > 100 µM; in assay [9], > 82.8 µM; in assay [10], 18.1 µM; in assay [11] it was 43.2 µM; in assay [12] it was > 100 µM. Moreover, the TGI is 22.9 µM in [13], 18.2 µM in assay [14], 28.2 µM in assay [15] and > 90.6 µM in assay [16].
In the case of `O=C1C=CC2(C=C1)O[C@H](COCc1ccccc1)[C@@H](COCc1ccccc1)O2`, the TGI was 34.1 µM in assay [1]; 6.4 µM in assay [17]; 2.64 µM in [2]; 3.51 µM in [3]; 5.51 µM in assay [4]; 15.1 µM in assay [5]. The TGI in assay [6] worked out at 3.89 µM; in assay [8], 3.04 µM; in [9], 4.74 µM; in assay [10] it was 1.31 µM; in [11], 3.62 µM; in assay [12], 3.57 µM. For the same compound, the TGI in assay [13] is 12.3 µM; in assay [14] it was 13.4 µM; in assay [15], 4.02 µM; in [16], 2.91 µM.
In the case of `NC(N)=N/N=C\c1c(-c2cccc([N+](=O)[O-])c2)nc2sccn12`, the TGI in assay [1] is 64.1 µM; in assay [17], > 100 µM; in assay [2], 27.6 µM; in assay [4], 5.16 µM; in assay [5], 5 µM; in assay [7], 14.2 µM. The TGI was > 100 µM in assay [8]; 29 µM in assay [9]; 5.8 µM in [10]; 54.9 µM in assay [11]; 4.37 µM in assay [12]; 37.7 µM in assay [16].
For `O=C1Cc2c(-c3cccs3)cc(-c3ccccc3)nc2-c2ccccc2N1`, the TGI in assay [1], in assay [2], in [3], in assay [4], in assay [5] and in assay [6] was > 100 µM each time. The TGI in assay [7], in [8], in assay [9], in [10], in [11] and in assay [12] was > 100 µM each time. Moreover, the values for the TGI in [13], in [14] and in [16] were > 100 µM, 41.9 µM and > 100 µM, respectively.
In the case of `Clc1ccc(/C=C/c2nc(-c3ccccc3)cn3c2nc2ccccc23)cc1Cl`, the TGI was > 100 µM in assay [1]; 49.7 µM in assay [17]; > 100 µM in assay [2]; > 100 µM in assay [3]; > 100 µM in [4]; > 100 µM in assay [5]. Moreover, the TGI in assay [6], in [8], in assay [9], in assay [10], in [11] and in assay [12] was > 100 µM in each case. Besides, the TGI in assay [13], in assay [15] and in [16] was > 100 µM in each case.
As for `COC(=O)C(Cc1ccccc1)NC(=O)CSc1nnc(COc2ccc(Cl)cc2)n1-c1ccccc1` (stereo unspecified), the TGI in assay [1] is 56.1 µM; in assay [17], 46.6 µM; in [2], 76.7 µM; in assay [3], 28.3 µM; in assay [4] it was 45.6 µM; in [5] it was > 100 µM. Besides, the TGI was > 100 µM in assay [6]; 54.6 µM in assay [8]; 59 µM in assay [9]; 43 µM in assay [10]; 51.3 µM in assay [11]; 78.6 µM in assay [12]. Besides, the TGI was > 100 µM in [13], 56.1 µM in [14], 32.9 µM in assay [15] and 3.34 µM in [16].
For `CC(=O)N1C=Cc2c(c(C)c3c([nH]c4ccccc43)c2C)C1`, the TGI in [1] is 28.3 µM; in assay [17], > 100 µM; in [2] it was 20.8 µM; in assay [3], 16.8 µM; in [4], 27.4 µM; in assay [5], > 100 µM. Further, the TGI in assay [6] stood at 31.9 µM; in [7], 29.7 µM; in [8], 24 µM; in assay [9], 19.6 µM; in [10], 37.4 µM; in assay [11], 18.8 µM. Moreover, the figures for the TGI in assay [12], in [13] and in assay [15] were 31.8 µM, 28.7 µM and 19.4 µM, respectively.
